According to patent publication US20150030593A1, “COMPOSITIONS OF PENETRATION-ENHANCED TARGETING PROTEINS AND METHODS OF USE” (PERMEON BIOLOGICS, INC., priority 2013, published 2015):

Legend:
Type in all cases: cell-based
[1] = test system: MDA-MB-468 (Her2^Low) cells; assay: Flow cytometry detection of internalized GFP protein (Example 4); conditions: 1 μM, 2 hours, serum free media
Description: These two types of cells express different levels of Her2 protein (FIG. 8). […] MDA-MB-468 cells express very low levels of Her2 (referred to as Her2^Low) while AU565 cells express high levels of Her2 (referred to as Her2^high).
The media were replaced with serum free media containing 1 μM of a protein listed below, and incubated for 2 hours. Cells were washed 3×PBS, trypsinized, fixed with 4% PFA, washed with PBS and then analyzed by flow cytometry with detection of GFP.
Results: Flow cytometry analysis is indicative of the amount of protein internalized into the cells. FIGS. 9A and 9B show the flow cytometry data obtained for different tested samples at various conditions. The median fluorescence values obtained from the flow cytometry peak minus the median fluorescence values of untreated cells (background fluorescence) are shown in FIGS. 10A and 10B. See also Table 7. The first column indicates identifies the GFP-component of the construct used for the particular sample treatment. The second and third columns represents fluorescence in MDA-MB-468 cells following treatment with each of the GFP proteins alone (second column; examples of use of CPMs alone) or with each of the GFP-C6.5 fusion proteins (third column; examples of fusion proteins comprising a target-binding region and a CPM region). The fourth and fifth column fluorescence in AU565 cells following treatment with each of the GFP proteins alone (fourth column; examples of use of CPMs alone) or with each of the GFP-C6.5 fusion proteins (fifth column; examples of fusion proteins comprising a target-binding region and a CPM region).

AU565 (Her2^high) cells [2] = assay: as above; conditions: 1 μM, 2 hours, serum free media
[3] = test system: MDA-MB-468 (Her2^Low) cells; assay: Flow cytometry uptake in mixed cell population, concentration series (Example 5); conditions: 2 h; for Median Fluorescence Values, MDA-MB-468 cells (Her2−) GFP-C6.5 / Median Fluorescence Values, MDA-MB-468 cells (Her2−) C6.5-GFP: first set; for Median Fluorescence Values, Her2− GFP-C6.5: second set
Description: (§1) The media were replaced with serum free media containing indicated concentrations of protein listed below and incubated for 2 h. Cells were washed 3×PBS, trypsinized, fixed with 4% PFA, stained with Her2 Ab-APC for 0.5 hour, washed with PBS and then analyzed by flow cytometry with detection of GFP.
(§2) The tested proteins of the first and second sets of experiments were applied to the mixed cell population for two hours.
(§3) The above data were also plotted in FIGS. 13A-13H to show the median fluorescence value minus background fluorescence of untreated cells (background adjusted fluorescence) (Y-axis) as a function of concentration (X-axis) for each of the tested proteins in this Example. Cellular uptake of the proteins was measured by GFP fluorescence. Her2 expression level was measured by using a Her2 antibody conjugated with allophycocyanin (APC). Gating was applied to the flow cytometry data to identify Her2^1′ versus Her2^high populations. […] The Her2^low profiles (diamond) are indicative of the profile of charged GFP alone. The Her2^high profiles (square) are indicative of the profile of the charged GFP in combination with the target-binding region—C6.5 scFv. The data of sfGFP-C6.5 on the Her2^high cells reflects the profile of the target-binding region (C6.5) by itself.

AU565 (Her2^high) cells [4] = assay: as above; conditions: 2 h, first set
Description: as §1, §2, §3

[5] = test system: MDA-MB-468 (Her2^Low) cells; assay: Flow cytometry uptake in mixed cell population, time course (Example 6); conditions: 0.1 μM
Description: (§4) The media were replaced with serum free media containing 0.1 μM of protein listed below and incubated for 10 minutes, 30 minutes or 4 hours. Cells were washed 3×PBS, trypsinized, stained with Her2 Antibody-APC for 0.5 hours, washed with PBS and then analyzed by flow cytometry with detection of GFP.

AU565 (Her2^high) cells [6] = assay: as above; conditions: 0.1 μM
Description: as §4

SKOV-3 cells (Her2^high) = assay: Cellular uptake by fluorescence microscopy; conditions: 1 μM, 1 hour
Description: These images were taken to assess cellular uptake of these GFP-containing proteins by fluorescence microscopy. The images shown are an overlay of phase contrast and GFP fluorescence images.
In addition, SKOV-3 cells (Her2^high) were treated with 1 μM of proteins for 1 hour, and then images were taken to assess cellular uptake of GFP proteins by fluorescence microscopy (FIG. 11A).

Molecule: +15GFP-C6.5: fusion of +15GFP, (S4G)6 spacer, C6.5 scFv, His6
- median fluorescence values, MDA-MB-468 (Her2^Low) GFP-C6.5 [1]: 313,629
- median fluorescence values, AU565 (Her2^high) GFP-C6.5 (AU565 (Her2^high) cells [2]): 413,838
- Median Fluorescence Values, MDA-MB-468 cells (Her2−) GFP-C6.5 ([3]; 0.03 uM): 13,012
- Median Fluorescence Values, MDA-MB-468 cells (Her2−) GFP-C6.5 ([3]; 0.1 uM): 36,343
- Median Fluorescence Values, MDA-MB-468 cells (Her2−) GFP-C6.5 ([3]; 0.3 uM): 76,116
- Median Fluorescence Values, MDA-MB-468 cells (Her2−) GFP-C6.5 ([3]; 1 uM): 155,734
- Median Fluorescence Values, AUS65 cells (Her2+) GFP-C6.5 (AU565 (Her2^high) cells [4]; 0.03 uM): 37,663
- Median Fluorescence Values, AUS65 cells (Her2+) GFP-C6.5 (AU565 (Her2^high) cells [4]; 0.1 uM): 74,673
- Median Fluorescence Values, AUS65 cells (Her2+) GFP-C6.5 (AU565 (Her2^high) cells [4]; 0.3 uM): 128,374
- Median Fluorescence Values, AUS65 cells (Her2+) GFP-C6.5 (AU565 (Her2^high) cells [4]; 1 uM): 180,065
- cellular uptake (flow cytometry with detection of GFP), Her2− GFP-C6.5 ([5]; 10 min): 10,665
- cellular uptake (flow cytometry with detection of GFP), Her2− GFP-C6.5 ([5]; 30 min): 22,262
- cellular uptake (flow cytometry with detection of GFP), Her2− GFP-C6.5 ([5]; 4 h): 144,923
- cellular uptake (flow cytometry with detection of GFP), Her2+ GFP-C6.5 (AU565 (Her2^high) cells [6]; 10 min): 18,606
- cellular uptake (flow cytometry with detection of GFP), Her2+ GFP-C6.5 (AU565 (Her2^high) cells [6]; 30 min): 35,981
- cellular uptake (flow cytometry with detection of GFP), Her2+ GFP-C6.5 (AU565 (Her2^high) cells [6]; 4 h): 148,261

Molecule: C6.5-+15GFP: fusion of N-terminal C6.5 scFv, (S4G)6 spacer, +15GFP, His6
- cellular uptake by fluorescence microscopy (SKOV-3 cells (Her2^high)): internalized efficiently in the cells
- median fluorescence values, MDA-MB-468 (Her2^Low) GFP-C6.5 [1]: 767,627
- median fluorescence values, AU565 (Her2^high) GFP-C6.5 (AU565 (Her2^high) cells [2]): 2,170,916
- Median Fluorescence Values, MDA-MB-468 cells (Her2−) C6.5-GFP ([3]; 0.03 uM): 13,355
- Median Fluorescence Values, MDA-MB-468 cells (Her2−) C6.5-GFP ([3]; 0.1 uM): 36,070
- Median Fluorescence Values, MDA-MB-468 cells (Her2−) C6.5-GFP ([3]; 0.3 uM): 82,571
- Median Fluorescence Values, MDA-MB-468 cells (Her2−) C6.5-GFP ([3]; 1 uM): 306,260
- Median Fluorescence Values, AUS65 cells (Her2+) C6.5-GFP (AU565 (Her2^high) cells [4]; 0.03 uM): 75,821
- Median Fluorescence Values, AUS65 cells (Her2+) C6.5-GFP (AU565 (Her2^high) cells [4]; 0.1 uM): 162,337
- Median Fluorescence Values, AUS65 cells (Her2+) C6.5-GFP (AU565 (Her2^high) cells [4]; 0.3 uM): 305,944
- Median Fluorescence Values, AUS65 cells (Her2+) C6.5-GFP (AU565 (Her2^high) cells [4]; 1 uM): 822,351
- cellular uptake (flow cytometry with detection of GFP), Her2− C6.5-GFP ([5]; 10 min): 13,517
- cellular uptake (flow cytometry with detection of GFP), Her2− C6.5-GFP ([5]; 30 min): 17,194
- cellular uptake (flow cytometry with detection of GFP), Her2− C6.5-GFP ([5]; 4 h): 96,599
- cellular uptake (flow cytometry with detection of GFP), Her2+ C6.5-GFP (AU565 (Her2^high) cells [6]; 10 min): 37,044
- cellular uptake (flow cytometry with detection of GFP), Her2+ C6.5-GFP (AU565 (Her2^high) cells [6]; 30 min): 61,007
- cellular uptake (flow cytometry with detection of GFP), Her2+ C6.5-GFP (AU565 (Her2^high) cells [6]; 4 h): 184,844

Molecule: sfGFP-C6.5: fusion of superfolder GFP, (S4G)6 spacer, C6.5 anti-Her2 scFv, His6
- median fluorescence values, MDA-MB-468 (Her2^Low) GFP-C6.5 [1]: 5,632
- Median Fluorescence Values, Her2− GFP-C6.5 ([3]; 0.03 uM): 4,460
- Median Fluorescence Values, Her2− GFP-C6.5 ([3]; 0.1 uM): 4,824
- Median Fluorescence Values, Her2− GFP-C6.5 ([3]; 0.3 uM): 4,947
- cellular uptake (flow cytometry with detection of GFP), Her2− GFP-C6.5 ([5]; 10 min): 4,081
- cellular uptake (flow cytometry with detection of GFP), Her2− GFP-C6.5 ([5]; 30 min): 3,986
- cellular uptake (flow cytometry with detection of GFP), Her2− GFP-C6.5 ([5]; 4 h): 4,704

B1: +2GFP-C6.5: +2GFP fused to C6.5 scFv; variant a or b not stated (protein)
scFv: QVQLLQSGAELKKPGESLKISCKGSGYSFTSYWIAWVRQMPGKGLEYMGLIYPGDSDTKYSPSFQGQVTISVDKSVSTAYLQWSSLKPSDSAVYFCARHDVGYCSSSNCAKWPEYFQHWGQGTLVTVSSGGGGSGGGGSGGGGSQSVLTQPPSVSAAPGQKVTISCSGSSSNIGNNYVSWYQQLPGTAPKLLIYGHTNRPAGVPDRFSGSKSGTSASLAISGFRSEDEADYYCAAWDDSLSGWVFGGGTKLTVLGGHGHHHHHH
modifications: left off: large carriers; small tags and cut ends
- cellular uptake by fluorescence microscopy (SKOV-3 cells (Her2^high)): bound to SKOV-3 cells through Her2 but did not internalize in the cells
